Reference: ChEMBL document CHEMBL5728888, “Metallo-beta-lactamase inhibitors and methods of use thereof” (2021)

molecular target: Metallo-beta-lactamase type 2 (Bacteria, UniProt C7C422); assay: Enzyme Activity: Determination of IC50 : The Class B enzyme activities were measured in the presence of the test inhibitor in a fluorescence assay against a commercially available substrate consisting of a cephalosporin core linking 7-hydroxycoumarin to fluorescein (CCF2-FA). The enzyme (NDM-1, IMP-1 or VIM-1) and the substrate were diluted in 100 mM KH2PO4 buffer (pH 7) containing 0.005% Tween-20 and 10 μM ZnSO4. In the assay, the final concentration of enzyme was 1 pM, 2 pM and 30 pM for NDM-1, IMP-1 and VIM-1, respectively, and the final concentration of CCF2-FA was 1.25 μM. The test inhibitor was dissolved in dimethylsulfoxide and diluted 1:50 in the assay, resulting in a final concentration range of 20 μM to 0.00063 μM. In a 384-well microplate, the test inhibitor was incubated with the metallo-β-lactamase enzyme and the substrate for 2 hours at 25° C. Fluorescence at 460 nm following excitation at 405 nm was measured. The IC50 value was determined from semi-logarithmic plots of enzyme inhibition versus inhibitor concentration, with a curve generated using a 4-parameter fit.
Sequence (C7C422 whole entry): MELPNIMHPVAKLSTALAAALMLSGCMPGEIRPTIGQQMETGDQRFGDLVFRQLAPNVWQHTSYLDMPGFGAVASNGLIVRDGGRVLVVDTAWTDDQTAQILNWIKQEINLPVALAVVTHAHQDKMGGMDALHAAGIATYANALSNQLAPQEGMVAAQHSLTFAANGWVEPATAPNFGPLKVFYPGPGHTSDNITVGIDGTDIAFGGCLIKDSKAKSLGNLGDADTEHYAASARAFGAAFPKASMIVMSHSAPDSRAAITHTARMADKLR

SMILES | IC50
NC[C@@H](O)CNS(=O)(=O)c1ccc(N2CC[C@H](CN)C2)c(-c2nn[nH]n2)c1S(N)(=O)=O | 16.8 nM
NC[C@@H](O)CNS(=O)(=O)c1ccc(Nc2ncc[nH]2)c(-c2nn[nH]n2)c1S(N)(=O)=O | 10.8 nM
NCC1CCN(c2ccc(S(=O)(=O)N[C@@H]3CCNC3)c(S(N)(=O)=O)c2-c2nn[nH]n2)CCN1 (stereo partly drawn) | 19.2 nM
